Measured values reported in article PMC4912613, “A broad analysis of resistance development in the malaria parasite” (Nature Communications, 2016).

How the values were obtained:
W2 = assay: Cross-resistance EC50 assay, W2 parent; assay type: cell-based, Plasmodium falciparum; conditions: for EC50: Plasmodium falciparum, 48 h, read-out: W2F6 (PARENT) Average EC50
Source text: Multidrug resistance alleles, including mutations in P. falciparum chloroquine resistance transporter (pfcrt) and P. falciparum multi-drug resistance transporter 1 (pfmdr1) are very common in field isolates. Therefore, we sought to assess the degree to which pre-existing resistance alleles would contribute to a loss of potency for this diverse collection of small molecule compounds. Fifteen clones derived from three main parent lines were chosen to maximize diversity in mutated pathways and genetic backgrounds, thus representing the variety of resistance seen in the field: 3D7 (ref. [23]), W2 (ref. [24]) or Dd2 (ref. [25]). The 3D7 line originates from the clone of a Netherlands clinical isolate strain[23][26] and is generally considered to be drug sensitive, though it does convey resistance to sulfadoxine. Conversely, W2 (ref. [24], [27]) and Dd2 (ref. [25]) are multi-drug-resistant lines originating from the Indochina III/CDC isolate, which contain point mutations in pfcrt as well as amplifications in pfmdr1 and GTP cyclohydrolase.
(§1) To evaluate potential overlapping activity against known antimalarial drug targets, we performed dose-response studies with each compound against our assembled set of drug-resistant lines and their corresponding parents, in an asexual blood stage proliferation assay (Table 1). Comparisons were made to the drug-sensitive strain 3D7 when a parent was unavailable (TM90C2A, W2 and Dd2). As laboratories conducted EC50 assays with different strains and protocols, all comparisons were made between assays from the same laboratory and under the same assay conditions. Compounds displaying >5-fold EC50 shifts relative to the parent or sensitive strain were flagged as having potentially non-novel targets. Average fold shifts per strain ranged from 0.82 to 2.34, with a median of 1.23 indicating there was not common resistance to any one resistant clone. No resistance patterns were observed when classifying the compounds based on chemical structure, but this was not surprising given the diversity of compounds chosen. On the other hand, given that these confirmed compounds were derived from larger unconfirmed hit lists to which some filtration criteria may have been applied (for example, elimination of obvious dihydrofolate reductase inhibitors[32]), some[10][11][12][13] pre-existing bias may exist in the set.
The 48-h assay was carried out in a 96-well format following standard methods using the ^3H-hypoxanthine incorporation assay. The raw EC50 values corresponding to this assay can be found in Supplementary Data 3. Briefly, this assay relies on the parasite incorporation of labelled hypoxanthine that is proportional to P. falciparum growth. A culture of parasitized RBCs (0.5% parasitemia with a percentage of ring stage higher than 70% of total parasitemia, 2.0% haematocrit) in RPMI-1640, […] and 5 μM hypoxanthine was exposed to drug serial dilutions. Plates were incubated for 24 h at 37 °C, 5% CO2, 5% O2 and 90% N2. After 24 h of incubation, ^3H-hypoxanthine was added and plates were incubated for an additional 24-h period. After that, parasites were harvested on a glass fibre filter using a TOMTEC Cell Harvester 96. Filters were dried and melt-on scintillator sheets were used to determine the incorporation of ^3H-hypoxanthine. Radioactivity was measured using a microbeta counter. Data were normalized using the incorporation of the positive (parasitized RBCs without drug) and negative (same culture with artesunate at 2 μM) controls. All assays were conducted in triplicate using three independently grown cultures, and EC50 values were determined using the XLfit add-in module for Excel (version 2.3.1) from Grafit (version 5.3.1.3), where parameter h is the assay hill slope, x is the compound concentration and y is the inhibition of growth effect. The XLfit equation is: […]
Alternatively, a SYBR Green-based proliferation approach was used for the 72-h assay, as previously described. […]

[1] = tested on: GNF449-R2 (PfATP4 I203L and P990R, parent Dd2); assay: Cross-resistance EC50 assay, GNF449-R2; assay type: cell-based; conditions: Plasmodium falciparum, SYBR green 72 hour assay, asynchronized parasites, 96-well or 1536-well format
Source text: as §1, with “set. […]” for “set.”
(§2) Alternatively, a SYBR Green-based proliferation approach was used for the 72-h assay, as previously described. Briefly, a culture of either synchronized or asynchronous parasitized RBCs (0.3% parasitemia and 4% haematocrit) in screening medium (identical to supplemented medium above except no serum was added) was exposed to serial drug dilutions. Plates were incubated at 37 °C and gassed with 93% N2, 4% CO2 and 3% O2 for 72 h. Following incubation, 10 × SYBR Green I (Invitrogen; supplied in 10,000 × concentration) in lysis buffer ([…], 5 mM EDTA, 0.16% Saponin wt per vol and 1.6% Triton X vol per vol) was added to the wells and the plates were incubated overnight at room temperature before plate reading. EC50 assays were repeated three times, taking the average EC50 value from each assay set, and removing any outliers using a single iteration of Grubbs' test, eliminating values with z-scores above the critical z-value (α=0.05). The raw EC50 values for synchronized parasites assayed in a 384-well format are listed in Supplementary Data 4. The raw EC50 values for asynchronous parasites assayed in a 96 or 1536-well format are listed in Supplementary Data 5.
(§3) EC50 values for each strain were compared with those of the corresponding parent strain to determine fold-shift changes and identify resistance. To minimize the cause variance between assays, all comparisons were conducted between strains assayed under identical conditions. A one-way ANOVA followed by a Dunnet's post-test was conducted in GraphPad Prism to identify significant changes between the parent and resistant strain.

[2] = tested on: ProRS (prolyl t-RNA synthetase L482H, parent Dd2); assay: Cross-resistance EC50 assay, ProRS; assay type: cell-based; conditions: Plasmodium falciparum, SYBR green 72 hour assay, synchronized parasites, 384-well format
Source text: as §1, with “set. […]” for “set.”
as §2, §3

[3] = tested on: NITD609-R2 (PfATP4 T418N and P990R, parent Dd2); assay: Cross-resistance EC50 assay, NITD609-R2; assay type: cell-based; conditions: Plasmodium falciparum, SYBR green 72 hour assay, asynchronized parasites, 96-well or 1536-well format
Source text: as §1, with “set. […]” for “set.”
as §2, §3

Compound: Cc1ccc(Oc2ncccc2C(=O)Cc2cccc3cccnc23)c(C)c1 [MMV020746]
- EC50 (W2): 247 nM
- EC50 [1]: 2.63 µM
- EC50 ([2]; strain ProRS (Dd2 parent)): 278 nM
- EC50 [3]: 2.14 µM

Compound: O=C(Nc1ccsc1C(=O)NC1CCCCC1)c1ccc(F)cc1 [MMV665939]
- EC50 (W2): 9880 nM
- EC50 fold-shift, W2 compared with 3D7 (W2; loss of efficacy): 9.5 ×
- EC50 [1]: 2.21 µM
- EC50 ([2]; strain ProRS (Dd2 parent)): 2380 nM
- EC50 [3]: 1.4 µM

Compound: COc1cc(-c2nc(-c3ccccc3)c(-c3ccccc3)[nH]2)ccc1OCCN(C)C [MMV027496]
- EC50 (W2): 272 nM
- EC50 [1]: 2.33 µM
- EC50 ([2]; strain ProRS (Dd2 parent)): 311 nM
- EC50 [3]: 0.755 µM

Compound: CCOc1cc2c(cc1OCC)C(c1cc(Cl)ccc1O)NCC2 (centres unmarked) [MMV000478]
- EC50 (W2): 172 nM
- EC50 [1]: 0.648 µM
- EC50 ([2]; strain ProRS (Dd2 parent)): 622 nM
- EC50 [3]: 0.661 µM

Compound: CN(C)Cc1ccc(-c2cc3c(-c4ccc(CN(C)C)cc4)ccnc3[nH]2)cc1.O=C(O)C(F)(F)F [MMV022224]
- EC50 (W2): 406 nM
- EC50 [1]: 0.518 µM
- EC50 ([2]; strain ProRS (Dd2 parent)): 294 nM
- EC50 [3]: 0.406 µM

Compound: COc1ccc(-c2nc(NC(=O)Cc3ccc4c(c3)OCCO4)sc2C)cc1 [MMV019719]
- EC50 (W2): 143 nM
- EC50 [1]: 0.405 µM
- EC50 ([2]; strain ProRS (Dd2 parent)): 244 nM
- EC50 [3]: 0.328 µM

Compound: COC(=O)c1ccc(C2C3=C(O)CC(c4ccc(F)cc4)CC3=Nc3ccccc3N2C(=O)c2ccccc2)cc1 (centres unmarked) [MMV011438]
- EC50 (W2): 644 nM
- EC50 [1]: 0.552 µM
- EC50 ([2]; strain ProRS (Dd2 parent)): 220 nM
- EC50 [3]: 0.306 µM

Compound: CCN(CC)CCn1c(=N)n(CC(O)c2ccc(Cl)c(Cl)c2)c2ccccc21.Cl (centres unmarked) [MMV000248]
- EC50 (W2): 605 nM
- EC50 [1]: 0.497 µM
- EC50 ([2]; strain ProRS (Dd2 parent)): 360 nM
- EC50 [3]: 0.252 µM

Compound: c1cc(-c2cnc3ccc(-c4ccc(N5CCOCC5)cc4)nn23)ccn1 [MMV668311]
- EC50 (W2): 29 nM
- EC50 [1]: 0.03 µM
- EC50 ([2]; strain ProRS (Dd2 parent)): 62 nM
- EC50 [3]: 0.016 µM

Compound: Brc1ccc(Nc2nc3ccccc3nc2Nc2ccc(Br)cc2)cc1 [MMV007224]
- EC50 (W2): 288 nM
- EC50 [1]: 0.717 µM
- EC50 ([2]; strain ProRS (Dd2 parent)): 298 nM
- EC50 [3]: 0.754 µM

Compound: CN(C)S(=O)(=O)c1cc(-c2ccc3nccc(-c4cccc(S(N)(=O)=O)c4)c3c2)cnc1N [MMV024038]
- EC50 (W2): 327 nM
- EC50 [1]: 1 µM
- EC50 ([2]; strain ProRS (Dd2 parent)): 143 nM
- EC50 [3]: 0.958 µM

Compound: COc1cc2cc(C(=O)Nc3ccccc3)c(N)nc2cc1OC [MMV006767]
- EC50 (W2): 1820 nM
- EC50 [1]: 0.329 µM
- EC50 ([2]; strain ProRS (Dd2 parent)): 1730 nM
- EC50 [3]: 0.106 µM

Compound: Nc1ncc(-c2cn[nH]c2)cc1-c1nc2ccc(F)cc2[nH]1 [MMV023367]
- EC50 (W2): 244 nM
- EC50 [1]: 2.66 µM
- EC50 ([2]; strain ProRS (Dd2 parent)): 517 nM
- EC50 [3]: 1.6 µM

Compound: COc1ccc(NC(=O)N2CCCCN3[C@H](CN)[C@H](c4ccc(C#Cc5ccccc5)cc4)[C@@H]3C2)cc1 [BRD1095]
- EC50 [1]: 0.00119 µM
- EC50 ([2]; DD2, ProRS strain): 17 nM
- EC50 [3]: 0.001 µM

Compound: Cc1nc2ccc3ccc(CNc4ccc(C(=O)CC(CCC(=O)O)C(=O)O)cc4)cc3c2c(=O)[nH]1.Cl (centres unmarked) [MMV027634]
- EC50 (W2): 62 nM
- EC50 [1]: 0.204 µM
- EC50 [3]: 0.14 µM
